Here are results for 18 compounds from ChEMBL document CHEMBL4359868, “New anthranilic acid-incorporating N-benzenesulfonamidophthalimides as potent inhibitors of carbonic anhydrases I, II, IX, and XII: Synthesis, in vitro testing, and in silico assessment” (Eur J Med Chem, 2019).

One assay addresses Carbonic anhydrase 12 (Homo sapiens, UniProt O43570).
In assay [1] the target is T1, Carbonic anhydrase 9 (Homo sapiens, UniProt Q16790).
Description: Inhibition of recombinant human CA9 preincubated for 15 mins by phenol red dye-based stopped-flow CO2 hydration assay
The target of the next assay is Carbonic anhydrase 1 (Homo sapiens, UniProt P00915). The assay is described as follows: Inhibition of recombinant human CA1 preincubated for 15 mins by phenol red dye-based stopped-flow CO2 hydration assay.
Chain of Carbonic anhydrase 1 (P00915 whole entry): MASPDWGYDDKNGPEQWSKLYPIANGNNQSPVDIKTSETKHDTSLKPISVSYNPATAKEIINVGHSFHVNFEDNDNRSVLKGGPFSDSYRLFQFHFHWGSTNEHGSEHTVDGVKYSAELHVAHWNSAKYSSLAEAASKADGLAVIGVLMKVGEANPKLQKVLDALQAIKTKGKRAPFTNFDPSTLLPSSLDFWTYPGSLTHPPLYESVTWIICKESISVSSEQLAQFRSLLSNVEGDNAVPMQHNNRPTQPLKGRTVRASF
The next assay has as its target Carbonic anhydrase 2 (Homo sapiens, UniProt P00918). Kind of assay: Inhibition of recombinant human CA2 preincubated for 15 mins by phenol red dye-based stopped-flow CO2 hydration assay.
For assay [2], the target named is T1, Carbonic anhydrase 9. Kind of assay: Inhibition of recombinant human CA9 at 10^-4 M preincubated for 15 mins by phenol red dye-based stopped-flow CO2 hydration assay.
The target in assay [3] is T1, Carbonic anhydrase 9. The note with it: 10^-5 M.
Description: Inhibition of recombinant human CA9 at 10^-5 M preincubated for 15 mins by phenol red dye-based stopped-flow CO2 hydration assay
Assay [4] concerns the target T1, Carbonic anhydrase 9. The note with it: at 0.1 µM.
Description: Inhibition of recombinant human CA9 at 10^-7 M preincubated for 15 mins by phenol red dye-based stopped-flow CO2 hydration assay
Assay [5] deals with T1, Carbonic anhydrase 9. As to conditions: at 1 µM.
Description: Inhibition of recombinant human CA9 at 10^-6 M preincubated for 15 mins by phenol red dye-based stopped-flow CO2 hydration assay
The target of assay [6] is T1, Carbonic anhydrase 9. As to conditions: at 0.01 µM.
Description: Inhibition of recombinant human CA9 at 10^-8 M preincubated for 15 mins by phenol red dye-based stopped-flow CO2 hydration assay

Chain of Carbonic anhydrase 12 (O43570 whole entry): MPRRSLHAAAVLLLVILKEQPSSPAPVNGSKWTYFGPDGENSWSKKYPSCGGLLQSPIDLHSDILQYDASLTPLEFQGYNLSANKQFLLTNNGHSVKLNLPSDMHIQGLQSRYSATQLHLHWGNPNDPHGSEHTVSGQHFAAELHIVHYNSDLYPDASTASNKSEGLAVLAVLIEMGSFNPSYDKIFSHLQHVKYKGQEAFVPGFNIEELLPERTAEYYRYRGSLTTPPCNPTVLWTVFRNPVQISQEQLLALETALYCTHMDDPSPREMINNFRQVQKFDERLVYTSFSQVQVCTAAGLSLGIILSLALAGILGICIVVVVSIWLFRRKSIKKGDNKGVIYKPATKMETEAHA
Description for Carbonic anhydrase 12: Inhibition of recombinant human CA12 preincubated for 15 mins by phenol red dye-based stopped-flow CO2 hydration assay

As for `COc1ccc(NC(=O)c2ccc3c(c2)C(=O)N(Cc2ccccc2)C3=O)c(C(=O)O)c1`, the Ki at Carbonic anhydrase 12 was > 100 µM; on Carbonic anhydrase 9 [1], 41900 nM; on Carbonic anhydrase 1, > 100 µM.
For the compound `CCOC(=O)c1ccc(N2C(=O)c3ccc(C(=O)Nc4ccc(OC)cc4C(=O)O)cc3C2=O)cc1`, the affinity at Carbonic anhydrase 9 [1], expressed as Ki, was 960 nM.
For `COc1ccc(NC(=O)c2ccc3c(c2)C(=O)N(c2ccccc2)C3=O)c(C(=O)O)c1`, the Ki is > 100 µM at Carbonic anhydrase 12, > 100 µM on Carbonic anhydrase 2 and 8200 nM on Carbonic anhydrase 9 [1].
Take `COc1ccc(NC(=O)c2ccc3c(c2)C(=O)N(c2ccc(S(N)(=O)=O)cc2)C3=O)c(C(=O)O)c1`: the Ki on Carbonic anhydrase 9 [1] stood at 8.8 nM.
With `NS(=O)(=O)c1ccc(CN2C(=O)c3ccc(C(=O)Nc4ccc(Cl)cc4C(=O)O)cc3C2=O)cc1`, at Carbonic anhydrase 9 [1], the Ki was found to be 21.6 nM.
On Carbonic anhydrase 9 [1], `COc1ccc(NC(=O)c2ccc3c(c2)C(=O)N(c2ccc(C(=O)O)cc2)C3=O)c(C(=O)O)c1` registered a Ki of 720 nM.
Consider `CCOC(=O)c1ccc(N2C(=O)c3ccc(C(=O)Nc4ccc(Cl)cc4C(=O)O)cc3C2=O)cc1`, for which the affinity at Carbonic anhydrase 9 [1] corresponds to a Ki of 530 nM.
Same read-out and setting: for `COc1ccc(NC(=O)c2ccc3c(c2)C(=O)N(CCc2ccc(S(N)(=O)=O)cc2)C3=O)c(C(=O)O)c1` the value was 8.2 nM.
Consider `O=C(Nc1ccc(Cl)cc1C(=O)O)c1ccc2c(c1)C(=O)N(Cc1ccccc1)C2=O`, for which the Ki was > 100 µM on Carbonic anhydrase 12, > 100 µM on Carbonic anhydrase 2, 47300 nM at Carbonic anhydrase 9 [1] and > 100 µM at Carbonic anhydrase 1.
As to `O=C(Nc1ccc(Cl)cc1C(=O)O)c1ccc2c(c1)C(=O)OC2=O`, on Carbonic anhydrase 9 [1], the Ki was 52 nM.
On Carbonic anhydrase 9 [1], `NS(=O)(=O)c1ccc(CCN2C(=O)c3ccc(C(=O)Nc4ccc(Cl)cc4C(=O)O)cc3C2=O)cc1` came in with a Ki of 7.3 nM.
As for `O=C(Nc1ccc(Cl)cc1C(=O)O)c1ccc2c(c1)C(=O)N(c1ccccc1)C2=O`, the Ki on Carbonic anhydrase 12 was > 100 µM; at Carbonic anhydrase 9 [1], 5500 nM; on Carbonic anhydrase 1, > 100 µM.
On to `COc1ccc(NC(=O)c2ccc3c(c2)C(=O)N(CCc2ccccc2)C3=O)c(C(=O)O)c1`, for which the Ki on Carbonic anhydrase 12 was > 100 µM; on Carbonic anhydrase 2, > 100 µM; on Carbonic anhydrase 9 [1], 31000 nM; at Carbonic anhydrase 1, > 100 µM.
For the compound `O=C(O)c1ccc(N2C(=O)c3ccc(C(=O)Nc4ccc(Cl)cc4C(=O)O)cc3C2=O)cc1`, the inhibition was 92% on Carbonic anhydrase 9 [2], 85% against Carbonic anhydrase 9 [3], 17% on Carbonic anhydrase 9 [4] and 70% against Carbonic anhydrase 9 [5]. At Carbonic anhydrase 9 [1], this compound gave a Ki of 460 nM.
On to `O=C(Nc1ccc(Cl)cc1C(=O)O)c1ccc2c(c1)C(=O)N(CCc1ccccc1)C2=O`, for which the inhibition constant Ki on Carbonic anhydrase 12 was > 100 µM; at Carbonic anhydrase 9 [1], 39600 nM; on Carbonic anhydrase 1, > 100 µM.
At Carbonic anhydrase 9 [1], `COc1ccc(NC(=O)c2ccc3c(c2)C(=O)N(Cc2ccc(S(N)(=O)=O)cc2)C3=O)c(C(=O)O)c1` registered a Ki of 36 nM.
In the case of `NS(=O)(=O)c1ccc(N2C(=O)c3ccc(C(=O)Nc4ccc(Cl)cc4C(=O)O)cc3C2=O)cc1`, the inhibition stood at 63% on Carbonic anhydrase 9 [6], 84% against Carbonic anhydrase 9 [4] and 96% against Carbonic anhydrase 9 [5]. This compound came in with a Ki on Carbonic anhydrase 9 [1] of 3.9 nM.
Take `COc1ccc(NC(=O)c2ccc3c(c2)C(=O)OC3=O)c(C(=O)O)c1`: the Ki at Carbonic anhydrase 12 was > 0.1 µM; at Carbonic anhydrase 9 [1] it was > 100 nM; at Carbonic anhydrase 1, > 0.1 µM.
